Tests used:
TAS2R1 = biological target: T1, TAS2R1 (Homo sapiens, UniProt Q9NYW7); experiment: Fluo-4 calcium assay, HEK293T cells stably expressing Gα16-gustducin44 and TAS2R1; assay type: cell-based
T1 construct: The full length gene of human TAS2R44 was amplified by polymerase chain reaction (PCR) using gene-specific primers that span the entire coding region; RSS tag (first 45 amino acids of rat somatostatin receptor subtype 3) (N); expressed in transfected cells
T1 sequence (Q9NYW7 1-299): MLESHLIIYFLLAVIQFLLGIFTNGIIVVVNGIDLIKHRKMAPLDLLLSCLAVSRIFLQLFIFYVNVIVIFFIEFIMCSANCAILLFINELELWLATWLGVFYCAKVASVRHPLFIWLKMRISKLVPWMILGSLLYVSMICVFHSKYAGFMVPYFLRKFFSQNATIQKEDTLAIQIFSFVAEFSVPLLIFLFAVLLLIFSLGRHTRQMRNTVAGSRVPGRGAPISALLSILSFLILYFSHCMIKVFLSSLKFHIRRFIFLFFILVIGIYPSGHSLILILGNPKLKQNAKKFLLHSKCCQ
Procedure: Cell lines that stably expresses a SABR (TAS2R44, TAS2R1, TAS2R10) was generated by transfecting pcDNA3.1Zeo-SABR into HEK293T/Gα16-gustducin 44 cells (both formed as described in example 1). The host cell line HEK-293T is commercially available from the American Tissue Culture Collection (ATCC), ATCC®# CRL-11268.
TAS2R1 expressing cells were identified by their response to 0.5 mM chloramphenicol (a known TAS2R1 agonist as described in WO 2006/053771) in addition to sucralose, which was determined via automated fluorimetric imaging on the FLIPR-Tetra instrumentation (Molecular Devices) using the methods described in Example 3. One clone was selected resulting in the HEK293T/Gα16-gustducin 44/TAS2R1 cell line.
(§1) At day 0, the HEK293T cell line expressing Gα16-gustducin44 and a TAS2R bitter taste receptor formed as described in examples 2b or 2c was seeded in antibiotic-free growth medium (standard DMEM with 10% (v/v) heat-inactivated fetal bovine serum, 2 mM L-glutamine[…]) into black wall/clear bottom 96-well plates, coated with poly(ethylenimine) (0.005% v/v) at a concentration of 15,000 cells per well and incubated for 48 hours in humidified atmosphere (37° C., 5% CO2).
(§2) At the time of the assay, the growth medium was discarded and the cells were in humidified atmosphere (37° C., 5% CO2) for 1 hour with 50 μl of loading buffer consisting of 1.5 μM Fluo-4 AM and […] probenicid (Sigma-Aldrich, St. Louis, Mo., US) in DMEM.
(§3) Afterwards, the 96-well plate was washed 5 times with 100 μl of assay buffer (130 mM NaCl, 5 mM KCl, 10 mM HEPES, 2 mM CaCl2, and 5 mM dextrose, pH 7.4) per well, using an automated plate washer (BioTek). The plate was further incubated for 30 minutes at room temperature in the dark to allow for complete de-esterification of the Fluo-4. Afterwards the plate was washed 5 times with 100 μl of assay buffer per well, and reconstituted with 100 μl of assay buffer per well.
(§4) For assay reading, the plate was placed in a Fluorometric Imaging Plate Reader (FLIPR) (FLIPR-TETRA™, Molecular Devices, Sunnyvale, Calif., US), and receptor activation was initiated by addition of 100 μl of a twofold concentrated agonist stock solution (to give the desired agonist end concentration when added to the 100 microliter assay buffer volume), which was prepared in assay buffer.
(§5) Fluorescence was continuously monitored for 20 seconds to give a signal baseline (averaged to give F0) prior to agonist addition and for 120 seconds after agonist addition. The change in signal divided by F0 gives ΔF/F0 indicated in the table, with ΔF being the maximum signal occurring within the 120 seconds minus the minimum signal (occurring within the 120 seconds after agonist addition.
(§6) All data was collected from at least two independent experiments each carried out in triplicate.
(§7) The obtained calcium signals were corrected for the response of cells expressing only the G Protein α subunit (Gα16-gustducin44) and normalized to the fluorescence of cells prior to the stimulus using ΔF/F0 (Fmax−Fmin/F0).
The intracellular calcium response following addition of sucralose was determined in HEK293T cell line stably expressing Gα16-gustducin44 and TAS2R1 formed as described in example 2c.

TAS2R16 = biological target: T2, TAS2R16 (Homo sapiens, UniProt Q9NYV7); experiment: Fluo-4 calcium assay, cells expressing TAS2R16 (control of antagonist specificity); assay type: cell-based; details: for P-β-G + test cpd A ΔF/F0: 25 μM test cpd A
T2 construct: The full length gene of human TAS2R44 was amplified by polymerase chain reaction (PCR) using gene-specific primers that span the entire coding region; RSS tag (first 45 amino acids of rat somatostatin receptor subtype 3) (N); expressed in transfected cells; host or cells: HEK293T cells expressing Gα16-gustducin44
T2 sequence (Q9NYV7 1-291): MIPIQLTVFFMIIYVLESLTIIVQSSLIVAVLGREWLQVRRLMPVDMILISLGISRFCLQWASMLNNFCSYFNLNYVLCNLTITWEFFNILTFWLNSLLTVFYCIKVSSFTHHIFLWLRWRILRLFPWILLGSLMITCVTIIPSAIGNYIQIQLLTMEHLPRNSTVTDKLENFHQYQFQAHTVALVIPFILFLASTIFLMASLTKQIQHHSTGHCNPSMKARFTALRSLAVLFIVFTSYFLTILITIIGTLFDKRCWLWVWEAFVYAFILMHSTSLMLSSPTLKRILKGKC
Procedure: as §1, §2, §3, §4, §5, §6
A concentration-response analysis was performed and EC50 values were calculated by nonlinear regression using the function f(x)=(a−d)/(1+(x/C)^nh)+d; with a=minimum signal, d=maximum signal, nh=hill coefficient, C=EC50, and x=agonist concentration. EC50 is the molar concentration of an agonist which produces 50% of the maximum possible effective response for that agonist.
as §7
All cells were HEK293T cells stably expressing Gα16-gustducin44, or expressing Gα16-gustducin44 and a TAS2R receptor (TAS2R44, TAS2R16).
The method was carried out as described in example 3 subject to the following modifications: The samples were tested with and without test compound A (test cpd A) and the signals were compared. The test compound was dissolved in dimethylsulfoxide (DMSO), and a negative control with equivalent DMSO concentration (0.02%) was performed accordingly to exclude a potential inhibitory effect of the solvent.
As a control of antagonist specificity, the response of an unrelated bitter taste receptor (TAS2R16) to its agonist phenyl-β-glucopyranosides is also detected (see results in table 8 herein below).

`OC[C@H]1O[C@H](O[C@]2(CCl)O[C@H](CCl)[C@@H](O)[C@@H]2O)[C@H](O)[C@@H](O)[C@H]1Cl` [Sucralose, sucralose] was tested, and the “calcium signaling in TAS2R1 cells, in words” value (TAS2R1) was “significant concentration-dependent increase in calcium signaling”, the “TAS2R1 ΔF/F0” value (TAS2R1; sucralose 0.3906 mM) was 0.052 and the “TAS2R1 ΔF/F0” value (TAS2R1; sucralose 0.7813 mM) was 0.050. The “TAS2R1 ΔF/F0” value (TAS2R1; sucralose 1.5625 mM) was 0.047, the “TAS2R1 ΔF/F0” value (TAS2R1; sucralose 3.1250 mM) was 0.059 and the “TAS2R1 ΔF/F0” value (TAS2R1; sucralose 6.2500 mM) was 0.061. For the same compound, the “TAS2R1 ΔF/F0” value (TAS2R1; sucralose 12.5000 mM) was 0.072, the “TAS2R1 ΔF/F0” value (TAS2R1; sucralose 25.0000 mM) was 0.104 and the “TAS2R1 ΔF/F0” value (TAS2R1; sucralose 50.0000 mM) was 0.197. The “TAS2R1 ΔF/F0” value (TAS2R1; sucralose 100.0000 mM) was 0.518.

With `CC1=CCC(C/C=C/C(=O)O)C1(C)C` (centres unmarked) [test cpd A, (E)-4-(2,2,3-trimethylcyclopent-3-enyl)but-2-enoic acid] the “P-β-G + test cpd A ΔF/F0” value (TAS2R16; P-β-G 0.0391 mM) was −0.013, the “P-β-G + test cpd A ΔF/F0” value (TAS2R16; P-β-G 0.0781 mM) was 0.108 and the “P-β-G + test cpd A ΔF/F0” value (TAS2R16; P-β-G 0.1563 mM) was 0.702. For the same compound, the “P-β-G + test cpd A ΔF/F0” value (TAS2R16; P-β-G 0.3125 mM) was 1.548, the “P-β-G + test cpd A ΔF/F0” value (TAS2R16; P-β-G 0.6250 mM) was 2.139 and the “P-β-G + test cpd A ΔF/F0” value (TAS2R16; P-β-G 1.2500 mM) was 2.367. The “P-β-G + test cpd A ΔF/F0” value (TAS2R16; P-β-G 2.5000 mM) was 2.480, the “P-β-G + test cpd A ΔF/F0” value (TAS2R16; P-β-G 5.0000 mM) was 2.646 and the “P-β-G + test cpd A ΔF/F0” value (TAS2R16; P-β-G 10.0000 mM) was 2.830. For the same compound, the “effect on the response of TAS2R16 to phenyl-β-glucopyranoside, in words” value (TAS2R16; test compound at 25 μM) was “does not block the response”.
